In ChEMBL document CHEMBL4808209 (J Med Chem, 2021):
Values after ≈ are worked out from the molar mass of the structure shown. Active and inactive are the calls of the source. No cut-off for these calls is given here.

Tests used:
[1] = Solubility of the compound in FaSSIF by HPLC analysis; assay type: physicochemical
[2] = Volume of distribution at steady state in Sprague-Dawley rat at 2 mg/kg, po or 1 mg/kg, iv administered as cassette dose measured after 24 hrs; assay type: ADME, organism-based; settings: in vivo, read-out: Vdss
[3] = Oral bioavailability in Sprague-Dawley rat at 2 mg/kg administered as cassette dose measured after 24 hrs; assay type: ADME, organism-based; settings: in vivo
[4] = Oral bioavailability in cynomolgus monkey at 2 mg/kg administered as cassette dose measured after 24 hrs; assay type: ADME, organism-based, Macaca fascicularis; settings: in vivo
[5] = Volume of distribution at steady state in cynomolgus monkey at 2 mg/kg, po or 0.5 mg/kg, iv administered as cassette dose measured after 24 hrs; assay type: ADME, organism-based, Macaca fascicularis; settings: in vivo, read-out: Vdss
CYP2C8 = CYP2C8 (Homo sapiens, UniProt P10632); assay: Inhibition of CYP2C8 in human liver microsomes using amodiaquine as substrate substrate in presence of NADPH by LC-MS/MS analysis; assay type: ADME; settings: probe amodiaquine
CYP3A4 = CYP3A4 (Homo sapiens, UniProt P08684); assay: Inhibition of CYP3A4 in human liver microsomes using midazolam or testosterone as substrate substrate in presence of NADPH by LC-MS/MS analysis; assay type: ADME; settings: human, liver microsomes, probe midazolam or testosterone
KATO III [6] = assay: Antitumor activity against human KATO III stomach cancer cell line xenografted in po dosed SCID mouse assessed as tumor growth inhibition administered once daily for 10 days; assay type: functional, organism-based; settings: dose 0.03-1 mg/kg, time 10.0 day
KATO III [7] = assay: Antitumor activity against human KATO III stomach cancer cell line xenografted in SCID mouse assessed as tumor growth inhibition at 0.3 mg/kg, po administered once daily for 10 days; assay type: functional, organism-based; settings: time 10.0 day
[8] = Toxicity in SCID mouse xenografted with human KATO III stomach cancer cell line assessed as drug tolerance at 0.03 to 1 mg/kg, po administered once daily for 10 days; assay type: organism-based; settings: in vivo, 240 h, dose 0.03-1 mg/kg, time 10 day
[9] = Inhibition of human adenosine transporter at 0.1 to 1 uM; assay type: ADME; settings: dose 0.1-1 µM
Adenosine receptor A1 = Adenosine receptor A1 (Homo sapiens, UniProt P30542); assay: Inhibition of adenosine A1 receptor (unknown origin) at 0.1 to 1 uM; settings: dose 0.1-1 µM
[10] = target: Alpha-2A adrenergic receptor (Homo sapiens, UniProt P08913); assay: Inhibition of adrenergic alpha 2A receptor (unknown origin) at 0.1 to 1 uM; settings: dose 0.1-1 µM
[11] = target: Beta-1 adrenergic receptor (Homo sapiens, UniProt P08588); assay: Inhibition of human adrenergic beta 1 receptor at 0.1 to 1 uM; settings: dose 0.1-1 µM
[12] = target: Sodium-dependent dopamine transporter (Homo sapiens, UniProt Q01959); assay: Inhibition of dopamine transporter (unknown origin) at 0.1 to 1 uM; assay type: ADME; settings: dose 0.1-1 µM
Histamine H1 receptor = Histamine H1 receptor (Homo sapiens, UniProt P35367); assay: Inhibition of histamine H1 receptor (unknown origin) at 0.1 to 1 uM; settings: dose 0.1-1 µM
Histamine H2 receptor = Histamine H2 receptor (Homo sapiens, UniProt P25021); assay: Inhibition of histamine H2 receptor (unknown origin) at 0.1 to 1 uM; settings: dose 0.1-1 µM
Histamine H3 receptor = Histamine H3 receptor (Homo sapiens, UniProt Q9Y5N1); assay: Inhibition of histamine H3 receptor (unknown origin) at 0.1 to 1 uM; settings: dose 0.1-1 µM
[13] = target: Muscarinic acetylcholine receptor M3 (Homo sapiens, UniProt P20309); assay: Inhibition of human muscarinic M3 receptor at 0.1 to 1 uM; settings: dose 0.1-1 µM
[14] = target: Muscarinic acetylcholine receptor M4 (Homo sapiens, UniProt P08173); assay: Inhibition of human muscarinic M4 receptor at 0.1 to 1 uM; settings: dose 0.1-1 µM
[15] = target: Muscarinic acetylcholine receptor M5 (Homo sapiens, UniProt P08912); assay: Inhibition of human muscarinic M5 receptor at 0.1 to 1 uM; settings: dose 0.1-1 µM
Mu-type opioid receptor = Mu-type opioid receptor (Homo sapiens, UniProt P35372); assay: Inhibition of human mu opioid receptor at 0.1 to 1 uM; settings: dose 0.1-1 µM
[16] = Inhibition of GABA chloride/TBOB site (unknown origin) at 0.1 to 1 uM; settings: human, dose 0.1-1 µM
[17] = Inhibition of ATP-sensitive potassium channel (unknown origin) at 0.1 to 1 uM; settings: human, dose 0.1-1 µM
Nitric oxide synthase 1 = Nitric oxide synthase 1 (Homo sapiens, UniProt P29475); assay: Inhibition of NOS (unknown origin) at 0.1 to 1 uM; settings: dose 0.1-1 µM
[18] = target: Type-1 angiotensin II receptor (Homo sapiens, UniProt P30556); assay: Inhibition of human angiotensin 2, AT1 at 0.1 to 1 uM; settings: dose 0.1-1 µM
D(4) dopamine receptor = D(4) dopamine receptor (Homo sapiens, UniProt P21917); assay: Inhibition of human dopamine D4.4 receptor at 0.1 to 1 uM; settings: dose 0.1-1 µM
[19] = Inhibition of Glutamate AMPA site receptor (unknown origin) at 0.1 to 1 uM; settings: human, dose 0.1-1 µM
[20] = test system: Glutamate [NMDA] receptor; assay: Inhibition of NMDA receptor (unknown origin) at 0.1 to 1 uM; assay type: protein-complex assay; settings: human, dose 0.1-1 µM
[21] = test system: Glutamate [NMDA] receptor; assay: Inhibition of Glutamate receptor ionotropic NMDA glycine,[…] site (unknown origin) at 0.1 to 1 uM; assay type: protein-complex assay; settings: human, dose 0.1-1 µM
[22] = target: 5-hydroxytryptamine receptor 1D (Homo sapiens, UniProt P28221); assay: Inhibition of 5HT1D receptor (unknown origin) at 0.1 to 1 uM; settings: dose 0.1-1 µM
[23] = target: 5-hydroxytryptamine receptor 2C (Homo sapiens, UniProt P28335); assay: Inhibition of 5HT2C receptor (unknown origin) at 0.1 to 1 uM; settings: dose 0.1-1 µM
[24] = target: 5-hydroxytryptamine receptor 4 (Homo sapiens, UniProt Q13639); assay: Inhibition of 5HT4 receptor (unknown origin) at 0.1 to 1 uM; settings: dose 0.1-1 µM
[25] = target: 5-hydroxytryptamine receptor 5A (Homo sapiens, UniProt P47898); assay: Inhibition of human 5HT5A receptor at 0.1 to 1 uM; settings: dose 0.1-1 µM
[26] = target: 5-hydroxytryptamine receptor 6 (Homo sapiens, UniProt P50406); assay: Inhibition of human 5HT6 receptor at 0.1 to 1 uM; settings: dose 0.1-1 µM
[27] = target: Sigma non-opioid intracellular receptor 1 (Homo sapiens, UniProt Q99720); assay: Inhibition of sigma 1 receptor (unknown origin) at 0.1 to 1 uM; settings: dose 0.1-1 µM
Endothelin-1 receptor = Endothelin-1 receptor (Homo sapiens, UniProt P25101); assay: Inhibition of human ETA receptor at 0.1 to 1 uM; settings: dose 0.1-1 µM
Acetylcholinesterase = Acetylcholinesterase (Homo sapiens, UniProt P22303); assay: Inhibition of acetylcholinesterase (unknown origin) at 0.1 to 1 uM; settings: dose 0.1-1 µM
[28] = target: Protein kinase C alpha type (Homo sapiens, UniProt P17252); assay: Inhibition of human PKCa at 0.1 to 1 uM; settings: dose 0.1-1 µM
[29] = Clearance in Beagle dog at 1 mg/kg, iv measured after 24 hrs relative to hepatic blood flow; assay type: ADME, organism-based, Canis lupus familiaris; settings: in vivo
[30] = Volume of distribution in Beagle dog at 1 mg/kg, iv measured after 24 hrs; assay type: ADME, organism-based, Canis lupus familiaris; settings: in vivo, read-out: Vdss
[31] = Half life in Beagle dog at 1 mg/kg, iv measured after 24 hrs; assay type: ADME, organism-based, Canis lupus familiaris; settings: in vivo
[32] = AUC in Beagle dog at 2 mg/kg, po measured after 24 hrs; assay type: ADME, organism-based, Canis lupus familiaris; parameters: route oral, time 24 hrs, dose 2 mg/kg; settings: in vivo
[33] = Oral bioavailability in Beagle dog at 2 mg/kg measured after 24 hrs; assay type: ADME, organism-based, Canis lupus familiaris; settings: in vivo

Chain of Endothelin-1 receptor (P25101 whole entry): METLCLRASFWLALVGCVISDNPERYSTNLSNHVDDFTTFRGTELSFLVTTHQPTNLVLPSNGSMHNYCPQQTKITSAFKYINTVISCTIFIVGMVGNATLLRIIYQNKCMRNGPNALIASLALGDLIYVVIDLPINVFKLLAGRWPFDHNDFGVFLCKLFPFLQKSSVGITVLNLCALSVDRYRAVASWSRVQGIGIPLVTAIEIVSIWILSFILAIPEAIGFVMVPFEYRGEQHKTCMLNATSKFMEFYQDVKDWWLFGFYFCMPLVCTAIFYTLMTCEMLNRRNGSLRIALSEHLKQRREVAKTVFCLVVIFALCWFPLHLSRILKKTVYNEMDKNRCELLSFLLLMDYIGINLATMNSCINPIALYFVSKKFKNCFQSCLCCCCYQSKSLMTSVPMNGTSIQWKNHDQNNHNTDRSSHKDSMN
Chain of CYP2C8 (P10632 whole entry): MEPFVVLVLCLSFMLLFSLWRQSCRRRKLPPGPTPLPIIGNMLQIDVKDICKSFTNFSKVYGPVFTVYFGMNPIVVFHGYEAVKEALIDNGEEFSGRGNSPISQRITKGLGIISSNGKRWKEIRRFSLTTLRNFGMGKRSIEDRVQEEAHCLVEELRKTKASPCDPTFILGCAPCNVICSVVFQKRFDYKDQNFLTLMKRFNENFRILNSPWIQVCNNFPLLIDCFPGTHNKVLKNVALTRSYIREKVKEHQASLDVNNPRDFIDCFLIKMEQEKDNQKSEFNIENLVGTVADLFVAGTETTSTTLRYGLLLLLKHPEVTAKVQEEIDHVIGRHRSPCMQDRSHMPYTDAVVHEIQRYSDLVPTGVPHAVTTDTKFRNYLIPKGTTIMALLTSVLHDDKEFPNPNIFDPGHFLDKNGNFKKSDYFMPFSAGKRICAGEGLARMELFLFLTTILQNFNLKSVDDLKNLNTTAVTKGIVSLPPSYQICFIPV
Chain of 5-hydroxytryptamine receptor 4 (Q13639 whole entry): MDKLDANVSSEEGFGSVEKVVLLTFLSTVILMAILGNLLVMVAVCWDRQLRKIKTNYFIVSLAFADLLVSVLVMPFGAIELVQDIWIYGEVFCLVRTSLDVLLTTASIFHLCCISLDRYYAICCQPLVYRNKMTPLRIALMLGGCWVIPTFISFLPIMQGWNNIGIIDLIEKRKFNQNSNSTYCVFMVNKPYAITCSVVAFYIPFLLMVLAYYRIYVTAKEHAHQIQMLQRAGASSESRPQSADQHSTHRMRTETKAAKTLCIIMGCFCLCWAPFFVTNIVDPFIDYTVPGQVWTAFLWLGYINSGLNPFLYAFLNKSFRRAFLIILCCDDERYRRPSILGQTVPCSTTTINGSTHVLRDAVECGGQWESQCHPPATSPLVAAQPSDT
Chain of CYP3A4 (P08684 whole entry): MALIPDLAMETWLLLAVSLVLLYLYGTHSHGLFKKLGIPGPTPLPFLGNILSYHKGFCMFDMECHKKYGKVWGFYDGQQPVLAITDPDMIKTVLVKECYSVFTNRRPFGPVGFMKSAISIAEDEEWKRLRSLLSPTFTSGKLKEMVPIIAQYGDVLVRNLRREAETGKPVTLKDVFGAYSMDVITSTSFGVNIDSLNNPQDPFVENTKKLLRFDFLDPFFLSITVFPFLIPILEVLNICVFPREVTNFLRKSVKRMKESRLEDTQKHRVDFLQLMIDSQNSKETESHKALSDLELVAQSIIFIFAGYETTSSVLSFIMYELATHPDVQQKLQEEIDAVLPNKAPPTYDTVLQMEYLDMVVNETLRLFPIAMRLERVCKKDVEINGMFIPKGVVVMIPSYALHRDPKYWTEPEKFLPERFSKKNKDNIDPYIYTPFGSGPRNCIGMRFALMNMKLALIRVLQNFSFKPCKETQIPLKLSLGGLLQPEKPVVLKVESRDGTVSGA
Chain of Acetylcholinesterase (P22303 whole entry): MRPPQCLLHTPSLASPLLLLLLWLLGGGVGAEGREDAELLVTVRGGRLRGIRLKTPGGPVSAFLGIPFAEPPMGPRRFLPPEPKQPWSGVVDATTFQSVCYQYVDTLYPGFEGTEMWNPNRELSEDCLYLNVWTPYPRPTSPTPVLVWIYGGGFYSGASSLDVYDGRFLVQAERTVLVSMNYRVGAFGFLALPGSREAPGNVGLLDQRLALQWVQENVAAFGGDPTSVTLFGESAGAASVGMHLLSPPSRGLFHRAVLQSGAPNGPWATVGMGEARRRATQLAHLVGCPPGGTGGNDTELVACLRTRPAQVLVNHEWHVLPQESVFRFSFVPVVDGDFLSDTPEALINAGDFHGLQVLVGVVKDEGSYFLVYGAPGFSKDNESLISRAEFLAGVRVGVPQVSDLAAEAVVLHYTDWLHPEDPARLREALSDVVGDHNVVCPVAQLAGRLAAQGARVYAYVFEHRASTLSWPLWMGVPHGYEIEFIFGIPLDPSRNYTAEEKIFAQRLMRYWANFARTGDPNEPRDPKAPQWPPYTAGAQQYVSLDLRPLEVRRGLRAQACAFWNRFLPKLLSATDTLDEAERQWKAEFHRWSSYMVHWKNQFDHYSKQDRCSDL
Chain of Muscarinic acetylcholine receptor M3 (P20309 whole entry): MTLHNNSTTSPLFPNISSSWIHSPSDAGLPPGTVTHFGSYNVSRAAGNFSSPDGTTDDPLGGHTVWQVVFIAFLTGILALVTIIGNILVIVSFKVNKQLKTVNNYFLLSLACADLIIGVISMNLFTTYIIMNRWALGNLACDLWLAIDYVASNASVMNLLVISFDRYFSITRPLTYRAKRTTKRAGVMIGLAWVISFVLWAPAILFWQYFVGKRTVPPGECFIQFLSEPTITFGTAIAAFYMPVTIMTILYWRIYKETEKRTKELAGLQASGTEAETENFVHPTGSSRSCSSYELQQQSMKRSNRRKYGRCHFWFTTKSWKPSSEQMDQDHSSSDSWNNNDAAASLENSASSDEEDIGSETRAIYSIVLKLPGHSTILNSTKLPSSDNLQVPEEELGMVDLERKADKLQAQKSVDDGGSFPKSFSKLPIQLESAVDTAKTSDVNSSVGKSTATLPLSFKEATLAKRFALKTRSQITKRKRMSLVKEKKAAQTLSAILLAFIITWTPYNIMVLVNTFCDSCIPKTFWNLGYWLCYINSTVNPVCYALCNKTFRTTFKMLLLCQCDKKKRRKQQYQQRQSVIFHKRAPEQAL
Chain of Mu-type opioid receptor (P35372 whole entry): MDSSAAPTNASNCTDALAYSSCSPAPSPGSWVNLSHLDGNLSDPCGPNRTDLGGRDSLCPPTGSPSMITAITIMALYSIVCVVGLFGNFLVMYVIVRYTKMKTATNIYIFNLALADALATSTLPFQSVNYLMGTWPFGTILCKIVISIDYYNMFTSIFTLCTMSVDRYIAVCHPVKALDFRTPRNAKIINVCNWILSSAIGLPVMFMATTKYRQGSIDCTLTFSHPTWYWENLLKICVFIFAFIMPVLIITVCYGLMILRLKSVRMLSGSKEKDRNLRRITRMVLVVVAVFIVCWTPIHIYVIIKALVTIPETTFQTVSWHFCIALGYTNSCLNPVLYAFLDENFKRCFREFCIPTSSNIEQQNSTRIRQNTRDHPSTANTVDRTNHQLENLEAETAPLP
Chain of 5-hydroxytryptamine receptor 5A (P47898 whole entry): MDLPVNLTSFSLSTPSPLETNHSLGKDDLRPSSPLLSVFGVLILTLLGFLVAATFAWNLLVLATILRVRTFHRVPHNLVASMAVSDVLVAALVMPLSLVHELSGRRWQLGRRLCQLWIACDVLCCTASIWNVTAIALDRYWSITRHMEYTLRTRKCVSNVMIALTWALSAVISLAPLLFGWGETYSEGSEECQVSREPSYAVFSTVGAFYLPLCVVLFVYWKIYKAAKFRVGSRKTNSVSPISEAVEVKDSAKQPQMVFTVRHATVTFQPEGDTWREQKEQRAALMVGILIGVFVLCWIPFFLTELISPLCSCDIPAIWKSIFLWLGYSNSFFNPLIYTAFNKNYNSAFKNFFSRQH
Chain of 5-hydroxytryptamine receptor 2C (P28335 whole entry): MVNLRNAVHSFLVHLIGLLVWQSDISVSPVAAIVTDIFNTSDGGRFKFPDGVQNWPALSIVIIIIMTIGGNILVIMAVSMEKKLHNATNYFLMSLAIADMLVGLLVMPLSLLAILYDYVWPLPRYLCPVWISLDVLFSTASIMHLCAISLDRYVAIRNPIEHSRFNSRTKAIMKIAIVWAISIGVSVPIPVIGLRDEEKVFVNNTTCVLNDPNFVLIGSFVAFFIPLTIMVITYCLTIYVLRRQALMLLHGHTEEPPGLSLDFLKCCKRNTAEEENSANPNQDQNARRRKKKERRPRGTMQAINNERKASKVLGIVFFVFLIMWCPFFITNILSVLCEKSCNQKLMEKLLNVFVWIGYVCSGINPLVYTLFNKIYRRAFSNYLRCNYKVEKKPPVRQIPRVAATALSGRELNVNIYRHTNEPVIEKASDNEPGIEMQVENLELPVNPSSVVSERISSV
Chain of Type-1 angiotensin II receptor (P30556 whole entry): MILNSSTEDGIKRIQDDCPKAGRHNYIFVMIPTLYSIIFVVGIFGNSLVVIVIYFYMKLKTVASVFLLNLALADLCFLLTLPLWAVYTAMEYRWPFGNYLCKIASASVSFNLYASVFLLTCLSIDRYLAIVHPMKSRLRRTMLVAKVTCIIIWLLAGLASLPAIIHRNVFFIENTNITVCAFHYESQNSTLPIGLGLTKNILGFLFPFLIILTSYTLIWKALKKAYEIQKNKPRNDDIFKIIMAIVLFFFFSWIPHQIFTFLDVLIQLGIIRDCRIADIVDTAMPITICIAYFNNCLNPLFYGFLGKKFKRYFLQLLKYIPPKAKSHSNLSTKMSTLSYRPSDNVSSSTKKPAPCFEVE
Chain of Sigma non-opioid intracellular receptor 1 (Q99720 whole entry): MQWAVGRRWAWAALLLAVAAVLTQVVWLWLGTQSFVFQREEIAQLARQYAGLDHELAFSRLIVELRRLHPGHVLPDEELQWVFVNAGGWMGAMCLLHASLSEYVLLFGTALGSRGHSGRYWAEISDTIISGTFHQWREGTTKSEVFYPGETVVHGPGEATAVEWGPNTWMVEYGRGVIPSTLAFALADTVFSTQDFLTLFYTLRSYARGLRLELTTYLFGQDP

CCN1C(=O)N(c2c(F)c(OC)cc(OC)c2F)Cc2cnc3[nH]c(CN4CCOCC4)cc3c21 [PEMIGATINIB] showed a solubility [1] of 11 µg/mL (≈ 22.6 µM), a Vd [2] of 1.85 L/kg and a bioavailability [3] greater than 100%. The bioavailability [4] was 29%, the Vd [5] was 0.58 L/kg and the IC50 (CYP2C8) was greater than 25 µM. For the same molecule, the IC50 (CYP3A4) was greater than 25 µM, the TGI (KATO III [6]) was “Dose-Dependent Effect” and the TGI (KATO III [7]) was “Active”. For the same molecule, the Activity [8] was “Non-Toxic”, the “inhibition (INH)” value [9] was “Not Active” and the “inhibition (INH)” value (Adenosine receptor A1) was “Not Active”. For the same molecule, the “inhibition (INH)” value [10] was “Not Active”, the “inhibition (INH)” value [11] was “Not Active” and the “inhibition (INH)” value [12] was “Not Active”. For the same molecule, the “inhibition (INH)” value (Histamine H1 receptor) was “Not Active”, the “inhibition (INH)” value (Histamine H2 receptor) was “Not Active” and the “inhibition (INH)” value (Histamine H3 receptor) was “Not Active”. The “inhibition (INH)” value [13] was “Not Active”, the “inhibition (INH)” value [14] was “Not Active” and the “inhibition (INH)” value [15] was “Not Active”. The “inhibition (INH)” value (Mu-type opioid receptor) was “Not Active”, the “inhibition (INH)” value [16] was “Not Active” and the “inhibition (INH)” value [17] was “Not Active”. The “inhibition (INH)” value (Nitric oxide synthase 1) was “Not Active”, the “inhibition (INH)” value [18] was “Not Active” and the “inhibition (INH)” value (D(4) dopamine receptor) was “Not Active”. The “inhibition (INH)” value [19] was “Not Active”, the “inhibition (INH)” value [20] was “Not Active” and the “inhibition (INH)” value [21] was “Not Active”. The “inhibition (INH)” value [22] was “Not Active”, the “inhibition (INH)” value [23] was “Not Active” and the “inhibition (INH)” value [24] was “Not Active”. The “inhibition (INH)” value [25] was “Not Active”, the “inhibition (INH)” value [26] was “Not Active” and the “inhibition (INH)” value [27] was “Not Active”. The “inhibition (INH)” value (Endothelin-1 receptor) was “Not Active”, the “inhibition (INH)” value (Acetylcholinesterase) was “Not Active” and the “inhibition (INH)” value [28] was “Not Active”. For the same molecule, the CL [29] was 10%, the Vd [30] was 3.49 L/kg and the half-life [31] was 15.7 h. For the same molecule, the AUC at 24 h [32] was 22.1 µM·h and the bioavailability [33] was 98%.
